# Test results published in patent US6620828B2, “Thiazole compounds and pharmaceutical compositions for inhibiting protein kinases and methods for their use” (Agouron Pharmaceuticals, Inc., priority 1999, dated 2003).
# Biological target: T1, FL-CHK1 (Homo sapiens, UniProt O14757)
# T1 construct: C-terminally His-tagged full-length human CHK1 (FL-CHK1); 6xHis (C); made in house; host or cells: baculovirus/insect cells
# T1 sequence (O14757 1-476): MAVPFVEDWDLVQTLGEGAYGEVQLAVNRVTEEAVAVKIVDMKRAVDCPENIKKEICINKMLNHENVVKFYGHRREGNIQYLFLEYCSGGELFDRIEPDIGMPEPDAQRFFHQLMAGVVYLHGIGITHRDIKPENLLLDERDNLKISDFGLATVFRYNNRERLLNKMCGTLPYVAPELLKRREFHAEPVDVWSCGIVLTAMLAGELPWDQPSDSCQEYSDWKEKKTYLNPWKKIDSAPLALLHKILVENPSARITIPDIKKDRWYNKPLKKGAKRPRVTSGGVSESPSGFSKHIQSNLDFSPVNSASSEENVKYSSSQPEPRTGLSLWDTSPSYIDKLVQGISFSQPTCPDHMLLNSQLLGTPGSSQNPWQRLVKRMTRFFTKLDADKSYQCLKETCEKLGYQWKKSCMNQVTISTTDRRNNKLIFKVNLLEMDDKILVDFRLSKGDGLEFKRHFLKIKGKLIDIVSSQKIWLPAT
# Experiment: CHK1 assay
# Format: biochemical
# Conditions: 20 μM; combinatorial library compounds
# Procedure, shortened: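 Full-length human CHK1 with C-terminal 6×His tag, made in baculovirus/insect cells, 10 nM, phosphorylating 0.125 mM Syntide-2 with 0.15 mM ATP in 50 mM Tris pH 7.5, 25 mM MgCl2, 400 mM NaCl. PK/LDH-coupled NADH oxidation read at 340 nm. Ki from initial rates over varied compound concentrations.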
Compound,inhibition at 20 µM [%],CHK1 % Inhibition at 20 μM [%]
Cn1cc(-c2csc(-c3sc(Nc4ccc(S(N)(=O)=O)cc4)nc3N)n2)cc1C(=O)C(Cl)(Cl)Cl,3.3,
CN(C)c1ccc(Nc2nc(N)c(-c3nc(-c4ccc(C(F)(F)F)cc4)cs3)s2)cc1,13.1,
Nc1nc(Nc2ccc(S(N)(=O)=O)cc2)sc1-c1nc(-c2c(Cl)c(Cl)nc(Cl)c2Cl)cs1,19.8,
Cc1onc(-c2ccccc2)c1-c1csc(-c2sc(Nc3ccc(S(N)(=O)=O)cc3)nc2N)n1,2.9,
Nc1nc(Nc2ccc(S(N)(=O)=O)cc2)sc1-c1nc(-c2ccc(F)cc2)cs1 [drawing 409],33.7,
CC1(C)CCC(C)(C)c2cc(-c3csc(-c4sc(Nc5ccc(S(N)(=O)=O)cc5)nc4N)n3)ccc21,13.1,
Nc1nc(Nc2ccc(S(N)(=O)=O)cc2)sc1-c1nc(-c2ccccc2OC(=O)c2ccccc2)cs1,-1.6,
CN(C)c1ccc(Nc2nc(N)c(-c3nc(-c4c(Cl)cc(C(F)(F)F)cc4Cl)cs3)s2)cc1,37.5,
Nc1nc(Nc2ccc(S(N)(=O)=O)cc2)sc1-c1nc(-c2ccc(OC(=O)c3ccccc3)cc2)cs1,4.4,

# Results, then the compound that gave them:
inhibition at 20 µM [%],CHK1 % Inhibition at 20 μM [%],Compound
34.9,,Cc1c(C)c(C)c(-c2csc(-c3sc(Nc4ccc(C(C)C)cc4)nc3N)n2)c(C)c1C
,17.8,Cc1c(-c2csc(-c3sc(Nc4ccc(C(C)C)cc4)nc3N)n2)sc2ccc(Cl)cc12 [drawing 489]
13,,CC(C)c1ccc(Nc2nc(N)c(-c3nc(-c4ccc(CC(=O)O)s4)cs3)s2)cc1
0.2,,Cc1ccc(-c2csc(-c3sc(Nc4ccc(S(N)(=O)=O)cc4)nc3N)n2)c(C)c1
19.7,,CC(C)c1ccc(Nc2nc(N)c(-c3nc(-c4ccc(F)cc4F)cs3)s2)cc1
,4,CC(C)c1ccc(Nc2nc(N)c(-c3nc(-c4ccccc4)cs3)s2)cc1 [drawing 484]
20.9,,CC(C)c1ccc(Nc2nc(N)c(-c3nc(-c4ccc5c(c4)CCC(=O)N5)cs3)s2)cc1
5.1,,Cc1cc(-c2csc(-c3sc(Nc4ccc(C(C)C)cc4)nc3N)n2)cc(C)c1O
7.5,,CC(C)c1ccc(Nc2nc(N)c(-c3nc(-c4ccc(OC(=O)c5ccccc5)cc4)cs3)s2)cc1

# Biological target: T2, phosphorylated VEGF-R2Δ50 (FLVK-P) (Homo sapiens, UniProt P35968, DEL940-989/E990V)
# T2 construct: VEGF-R2Δ50 contains residues 806-939 and 990-1171; made in house; host or cells: baculovirus/insect cells
# Experiment: VEGF-R2 coupled spectrophotometric (FLVK-P) assay
# Format: biochemical
# Conditions: 20 μM; combinatorial library compounds
# Procedure, shortened: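 Baculovirus-expressed human VEGF-R2Δ50 (residues 806-939/990-1171, E990V) was autophosphorylated with 3 mM ATP, 40 mM MgCl2 for 2 h at 4° C. ADP formation was coupled via PK/LDH to NADH oxidation, read at 340 nm, with 5.1 mM poly(E4Y1), 1 mM ATP, 25 mM MgCl2, Hepes pH 7.5. Ki came from activity across compound concentrations.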
# T2 sequence (P35968 with tags, fused parts or gaps DEL940-989/E990V limits assumed): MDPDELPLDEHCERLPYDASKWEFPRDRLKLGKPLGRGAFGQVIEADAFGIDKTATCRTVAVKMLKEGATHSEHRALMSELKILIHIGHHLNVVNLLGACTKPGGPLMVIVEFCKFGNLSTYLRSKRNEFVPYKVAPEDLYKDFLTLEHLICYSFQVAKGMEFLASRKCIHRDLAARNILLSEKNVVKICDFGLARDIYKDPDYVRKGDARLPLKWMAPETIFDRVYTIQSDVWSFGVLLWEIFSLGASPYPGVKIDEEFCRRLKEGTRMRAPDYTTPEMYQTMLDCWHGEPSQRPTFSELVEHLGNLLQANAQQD
row,Compound,VEGF % inhibition at 20 μM [%]
1,Cc1c(-c2csc(-c3sc(Nc4ccc(C(C)C)cc4)nc3N)n2)sc2ccc(Cl)cc12 [drawing 489],42
2,CC(C)c1ccc(Nc2nc(N)c(-c3nc(-c4ccccc4)cs3)s2)cc1 [drawing 484],−4

# Same assay, conditions: read-out: VEGF % inhibition at 20 μM, 20 μM; combinatorial library compounds
row,Compound,inhibition at 20 µM [%]
1,Cn1cc(-c2csc(-c3sc(Nc4ccc(S(N)(=O)=O)cc4)nc3N)n2)cc1C(=O)C(Cl)(Cl)Cl,-4
2,CN(C)c1ccc(Nc2nc(N)c(-c3nc(-c4ccc(C(F)(F)F)cc4)cs3)s2)cc1,5
3,Nc1nc(Nc2ccc(S(N)(=O)=O)cc2)sc1-c1nc(-c2c(Cl)c(Cl)nc(Cl)c2Cl)cs1,11
4,Cc1onc(-c2ccccc2)c1-c1csc(-c2sc(Nc3ccc(S(N)(=O)=O)cc3)nc2N)n1,-2
5,Nc1nc(Nc2ccc(S(N)(=O)=O)cc2)sc1-c1nc(-c2ccc(F)cc2)cs1 [drawing 409],43
6,CC1(C)CCC(C)(C)c2cc(-c3csc(-c4sc(Nc5ccc(S(N)(=O)=O)cc5)nc4N)n3)ccc21,-2
7,Nc1nc(Nc2ccc(S(N)(=O)=O)cc2)sc1-c1nc(-c2ccccc2OC(=O)c2ccccc2)cs1,9
8,CN(C)c1ccc(Nc2nc(N)c(-c3nc(-c4c(Cl)cc(C(F)(F)F)cc4Cl)cs3)s2)cc1,26
9,Nc1nc(Nc2ccc(S(N)(=O)=O)cc2)sc1-c1nc(-c2ccc(OC(=O)c3ccccc3)cc2)cs1,8

# Now from value to compound:
row,inhibition at 20 µM [%],Compound
1,59,Cc1c(C)c(C)c(-c2csc(-c3sc(Nc4ccc(C(C)C)cc4)nc3N)n2)c(C)c1C
2,33,CC(C)c1ccc(Nc2nc(N)c(-c3nc(-c4ccc(CC(=O)O)s4)cs3)s2)cc1
3,50,Cc1ccc(-c2csc(-c3sc(Nc4ccc(S(N)(=O)=O)cc4)nc3N)n2)c(C)c1
4,46,CC(C)c1ccc(Nc2nc(N)c(-c3nc(-c4ccc(F)cc4F)cs3)s2)cc1
5,21,CC(C)c1ccc(Nc2nc(N)c(-c3nc(-c4ccc5c(c4)CCC(=O)N5)cs3)s2)cc1
6,45,Cc1cc(-c2csc(-c3sc(Nc4ccc(C(C)C)cc4)nc3N)n2)cc(C)c1O
7,-4,CC(C)c1ccc(Nc2nc(N)c(-c3nc(-c4ccc(OC(=O)c5ccccc5)cc4)cs3)s2)cc1

# Biological target: CDK2/Cyclin A complex (Homo sapiens, UniProt P24941)
# Experiment: CDK2/Cyclin A assay
# Format: biochemical
# Conditions: 1.0 μM; combinatorial library compounds
# Procedure, shortened: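 Radiometric assay: 150 nM CDK2/cyclin A (insect-cell CDK2, truncated cyclin A) phosphorylates His-tagged Rb fragment (residues 386-928) with 25 μM ATP plus [32P]ATP, pH 7.4 HEPES, 2% DMSO, 30 °C for 20 min. Filter-captured product counted by phosphorimager; apparent Ki from competitive or tight-binding inhibition fits.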
Compound,inhibition at 1 µM [%],CDK2 % Inhibition at 1.0 μM [%]
Cn1cc(-c2csc(-c3sc(Nc4ccc(S(N)(=O)=O)cc4)nc3N)n2)cc1C(=O)C(Cl)(Cl)Cl,23.2,
CN(C)c1ccc(Nc2nc(N)c(-c3nc(-c4ccc(C(F)(F)F)cc4)cs3)s2)cc1,33.4,
Nc1nc(Nc2ccc(S(N)(=O)=O)cc2)sc1-c1nc(-c2c(Cl)c(Cl)nc(Cl)c2Cl)cs1,66.8,
Cc1onc(-c2ccccc2)c1-c1csc(-c2sc(Nc3ccc(S(N)(=O)=O)cc3)nc2N)n1,-4.5,
Nc1nc(Nc2ccc(S(N)(=O)=O)cc2)sc1-c1nc(-c2ccc(F)cc2)cs1 [drawing 409],74.7,
CC1(C)CCC(C)(C)c2cc(-c3csc(-c4sc(Nc5ccc(S(N)(=O)=O)cc5)nc4N)n3)ccc21,35.9,
Nc1nc(Nc2ccc(S(N)(=O)=O)cc2)sc1-c1nc(-c2ccccc2OC(=O)c2ccccc2)cs1,29,
CN(C)c1ccc(Nc2nc(N)c(-c3nc(-c4c(Cl)cc(C(F)(F)F)cc4Cl)cs3)s2)cc1,29.1,
Nc1nc(Nc2ccc(S(N)(=O)=O)cc2)sc1-c1nc(-c2ccc(OC(=O)c3ccccc3)cc2)cs1,20.7,

# The next lines start with the values.
inhibition at 1 µM [%],CDK2 % Inhibition at 1.0 μM [%],Compound
39.9,,Cc1c(C)c(C)c(-c2csc(-c3sc(Nc4ccc(C(C)C)cc4)nc3N)n2)c(C)c1C
,31,Cc1c(-c2csc(-c3sc(Nc4ccc(C(C)C)cc4)nc3N)n2)sc2ccc(Cl)cc12 [drawing 489]
21.8,,CC(C)c1ccc(Nc2nc(N)c(-c3nc(-c4ccc(CC(=O)O)s4)cs3)s2)cc1
19.6,,Cc1ccc(-c2csc(-c3sc(Nc4ccc(S(N)(=O)=O)cc4)nc3N)n2)c(C)c1
30.6,,CC(C)c1ccc(Nc2nc(N)c(-c3nc(-c4ccc(F)cc4F)cs3)s2)cc1
23.3,,CC(C)c1ccc(Nc2nc(N)c(-c3nc(-c4ccccc4)cs3)s2)cc1 [drawing 484]
29.1,,CC(C)c1ccc(Nc2nc(N)c(-c3nc(-c4ccc5c(c4)CCC(=O)N5)cs3)s2)cc1
14.1,,Cc1cc(-c2csc(-c3sc(Nc4ccc(C(C)C)cc4)nc3N)n2)cc(C)c1O
73,,CC(C)c1ccc(Nc2nc(N)c(-c3nc(-c4ccc(OC(=O)c5ccccc5)cc4)cs3)s2)cc1

# Biological target: T3, CDK4/Cyclin D3 complex (Homo sapiens, UniProt P11802)
# T3 construct: made in house; host or cells: insect cells co-infected with baculovirus vectors
# Experiment: CDK4/Cyclin D assay
# Format: biochemical
# Conditions: 1.0 μM; combinatorial library compounds
# Procedure, shortened: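 Insect-cell-expressed CDK4/cyclin D3 (50 nM) phosphorylating His-tagged Rb fragment (residues 386-928) with 25 μM [^32P]ATP in HEPES pH 7.4, MgCl2, 2% DMSO; 20 min at 30 °C, EDTA stop. Filter-captured 32P by phosphorimager; apparent Ki from competitive or tight-binding inhibition fits.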
# T3 sequence (P11802 whole entry): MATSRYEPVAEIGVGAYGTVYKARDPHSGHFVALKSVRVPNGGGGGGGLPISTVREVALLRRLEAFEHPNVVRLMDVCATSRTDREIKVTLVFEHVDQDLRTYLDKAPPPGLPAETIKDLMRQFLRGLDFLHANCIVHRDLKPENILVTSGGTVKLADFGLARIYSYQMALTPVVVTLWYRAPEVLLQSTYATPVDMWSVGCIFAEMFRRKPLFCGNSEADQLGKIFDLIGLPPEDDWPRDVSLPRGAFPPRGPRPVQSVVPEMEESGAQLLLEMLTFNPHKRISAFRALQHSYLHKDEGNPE
# T3 sequence (P30281 whole entry partner): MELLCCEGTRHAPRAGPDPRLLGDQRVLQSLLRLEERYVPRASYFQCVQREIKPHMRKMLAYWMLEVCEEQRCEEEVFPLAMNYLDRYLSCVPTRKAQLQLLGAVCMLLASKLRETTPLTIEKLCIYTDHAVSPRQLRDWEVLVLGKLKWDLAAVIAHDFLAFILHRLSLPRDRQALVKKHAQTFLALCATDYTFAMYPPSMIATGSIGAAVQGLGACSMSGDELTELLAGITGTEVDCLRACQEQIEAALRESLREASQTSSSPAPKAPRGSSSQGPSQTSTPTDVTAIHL
Compound,inhibition at 1 µM [%],CDK4 % Inhibition at 1.0 μM [%]
Cn1cc(-c2csc(-c3sc(Nc4ccc(S(N)(=O)=O)cc4)nc3N)n2)cc1C(=O)C(Cl)(Cl)Cl,14,
CN(C)c1ccc(Nc2nc(N)c(-c3nc(-c4ccc(C(F)(F)F)cc4)cs3)s2)cc1,60.3,
Nc1nc(Nc2ccc(S(N)(=O)=O)cc2)sc1-c1nc(-c2c(Cl)c(Cl)nc(Cl)c2Cl)cs1,58,
Cc1onc(-c2ccccc2)c1-c1csc(-c2sc(Nc3ccc(S(N)(=O)=O)cc3)nc2N)n1,-3.9,
Nc1nc(Nc2ccc(S(N)(=O)=O)cc2)sc1-c1nc(-c2ccc(F)cc2)cs1 [drawing 409],61.2,
CC1(C)CCC(C)(C)c2cc(-c3csc(-c4sc(Nc5ccc(S(N)(=O)=O)cc5)nc4N)n3)ccc21,31.8,
Nc1nc(Nc2ccc(S(N)(=O)=O)cc2)sc1-c1nc(-c2ccccc2OC(=O)c2ccccc2)cs1,2.3,
CN(C)c1ccc(Nc2nc(N)c(-c3nc(-c4c(Cl)cc(C(F)(F)F)cc4Cl)cs3)s2)cc1,82.6,
Nc1nc(Nc2ccc(S(N)(=O)=O)cc2)sc1-c1nc(-c2ccc(OC(=O)c3ccccc3)cc2)cs1,-27,

# More lines, now with the values ahead:
inhibition at 1 µM [%],CDK4 % Inhibition at 1.0 μM [%],Compound
84.7,,Cc1c(C)c(C)c(-c2csc(-c3sc(Nc4ccc(C(C)C)cc4)nc3N)n2)c(C)c1C
,79.9,Cc1c(-c2csc(-c3sc(Nc4ccc(C(C)C)cc4)nc3N)n2)sc2ccc(Cl)cc12 [drawing 489]
61.8,,CC(C)c1ccc(Nc2nc(N)c(-c3nc(-c4ccc(CC(=O)O)s4)cs3)s2)cc1
-13.5,,Cc1ccc(-c2csc(-c3sc(Nc4ccc(S(N)(=O)=O)cc4)nc3N)n2)c(C)c1
91.5,,CC(C)c1ccc(Nc2nc(N)c(-c3nc(-c4ccc(F)cc4F)cs3)s2)cc1
,−42.5,CC(C)c1ccc(Nc2nc(N)c(-c3nc(-c4ccccc4)cs3)s2)cc1 [drawing 484]
59.5,,CC(C)c1ccc(Nc2nc(N)c(-c3nc(-c4ccc5c(c4)CCC(=O)N5)cs3)s2)cc1
74.6,,Cc1cc(-c2csc(-c3sc(Nc4ccc(C(C)C)cc4)nc3N)n2)cc(C)c1O
45.9,,CC(C)c1ccc(Nc2nc(N)c(-c3nc(-c4ccc(OC(=O)c5ccccc5)cc4)cs3)s2)cc1
